Here are results for one compound from US12324893B2, “Triptan microporation delivery system” (PassPort Technologies, Inc., priority 2019, dated 2025).

This data set can be described thus: in vivo. The conditions noted are these: rat; for AUC / Cmax: hairless; for Tmax: in vivo. As to the method: In this study, four groups of hairless rats were tested under the following conditions: (1) Group 1 (3 mg free base API, Suc: 0.5 mg, AA: 1 mg); (2) Group 2 (6 mg free base API, Suc: 0.5 mg, AA: 1 mg); (3) Group 3 (9 mg free base API, Suc: 0.5 mg, AA: 1 mg); and (4) Group 4 (6 mg free base API per 100 μL head of saline).
The given bioavailability of Table 18 is relative bioavailability against SC injection.

On to `CNS(=O)(=O)Cc1ccc2[nH]cc(CCN(C)C)c2c1` [Sumatriptan Succinate], for which the AUC runs as follows: (sc, 6 mg) 5380 ng·h/mL; (topical or ocular, 3 mg) 2600 ng·h/mL; (topical or ocular, 6 mg) 3810 ng·h/mL; (topical or ocular, 9 mg) 4390 ng·h/mL. Further, the Cmax (sc, 6 mg) stood at 9780 ng/mL; the peak concentration (Cmax) (topical or ocular, 3 mg) was 1040 ng/mL; the highest concentration (Cmax) (topical or ocular, 6 mg) came out at 1400 ng/mL; the peak level (topical or ocular, 9 mg) (Cmax) was 1580 ng/mL. The Tmax (topical or ocular, 6 mg) was 1.3 h and the time to peak (Tmax) (topical or ocular, 9 mg) is 1.1 h.
